Data: PubChem BioAssay (NCI)
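Exposure lasted 48 hours, with cells grown in 96-well plates and compounds tested at five concentrations. Abbreviation: GI50, concentration required for 50% inhibition of growth. At the TGI there is no net growth.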

Tests used:
Assay in all cases: NCI-60 cell line screen, 48 h
786-0 renal = test system: 786-0 renal
DU-145 prostate = test system: DU-145 prostate
MALME-3M melanoma = test system: MALME-3M melanoma
OVCAR-3 ovarian = test system: OVCAR-3 ovarian
RPMI-8226 leukemia = test system: RPMI-8226 leukemia
SF-295 CNS = test system: SF-295 CNS
SR leukemia = test system: SR leukemia
BT-549 breast = test system: BT-549 breast
HCC-2998 colon = test system: HCC-2998 colon

C=C/C(C)=C\CC1[C@](C)(O)CC[C@H]2C(C)(C)C(=O)CC[C@]12C (some centres undefined)
TGI (786-0 renal): > 100 µM | TGI (DU-145 prostate): > 100 µM | TGI (MALME-3M melanoma): > 100 µM | TGI (OVCAR-3 ovarian): > 100 µM | TGI (RPMI-8226 leukemia): > 100 µM | TGI (SF-295 CNS): > 100 µM | TGI (SR leukemia): 66.5 µM

ClCCCc1ccccc1C1=NCCc2ccccc21
TGI (786-0 renal): > 100 µM | TGI (BT-549 breast): > 100 µM | TGI (DU-145 prostate): > 100 µM | TGI (HCC-2998 colon): > 100 µM | TGI (OVCAR-3 ovarian): > 100 µM | TGI (RPMI-8226 leukemia): 23.3 µM | TGI (SF-295 CNS): > 100 µM

CCCCC(=O)c1c(O)nc2sccn2c1=O
TGI (DU-145 prostate): > 10 µM | TGI (HCC-2998 colon): > 10 µM | TGI (MALME-3M melanoma): > 10 µM | TGI (OVCAR-3 ovarian): > 10 µM | TGI (RPMI-8226 leukemia): > 10 µM | TGI (SF-295 CNS): > 10 µM | TGI (SR leukemia): > 10 µM

O=c1[nH]nc(-c2ccccc2)n1/N=C\c1ccccc1
TGI (786-0 renal): > 100 µM | TGI (BT-549 breast): > 100 µM | TGI (DU-145 prostate): > 100 µM | TGI (HCC-2998 colon): > 100 µM | TGI (MALME-3M melanoma): > 100 µM | TGI (OVCAR-3 ovarian): > 100 µM | TGI (RPMI-8226 leukemia): > 100 µM | TGI (SF-295 CNS): > 100 µM | TGI (SR leukemia): > 100 µM

O=[N+]([O-])c1ccc2sc(C=Nc3cnccn3)cc2c1
TGI (786-0 renal): > 100 µM | TGI (BT-549 breast): > 100 µM | TGI (DU-145 prostate): > 100 µM | TGI (HCC-2998 colon): 40.7 µM | TGI (MALME-3M melanoma): > 100 µM | TGI (OVCAR-3 ovarian): > 100 µM | TGI (RPMI-8226 leukemia): 52.9 µM | TGI (SF-295 CNS): > 100 µM | TGI (SR leukemia): 45.5 µM

O=C1NC(=O)C(C(CC(=O)c2ccc([N+](=O)[O-])cc2)c2ccccc2)C(=O)N1 (centres undefined)
TGI (786-0 renal): > 100 µM | TGI (BT-549 breast): > 100 µM | TGI (DU-145 prostate): > 100 µM | TGI (MALME-3M melanoma): 42.9 µM | TGI (OVCAR-3 ovarian): > 100 µM | TGI (RPMI-8226 leukemia): > 100 µM | TGI (SF-295 CNS): 54.9 µM | TGI (SR leukemia): > 100 µM

CSCSSC
TGI (786-0 renal): > 100 µM | TGI (BT-549 breast): > 100 µM | TGI (DU-145 prostate): > 100 µM | TGI (HCC-2998 colon): > 100 µM | TGI (MALME-3M melanoma): > 100 µM | TGI (OVCAR-3 ovarian): > 100 µM | TGI (RPMI-8226 leukemia): > 100 µM | TGI (SF-295 CNS): > 100 µM | TGI (SR leukemia): > 100 µM

CC(=O)OCC1OC(SC2=N/C(=C\c3ccc(Br)s3)C(=O)N2CN2CCOCC2)C(OC(C)=O)C(OC(C)=O)C1OC(C)=O (centres undefined)
TGI (786-0 renal): 36.5 µM | TGI (BT-549 breast): 38.8 µM | TGI (DU-145 prostate): 30.6 µM | TGI (HCC-2998 colon): 38.7 µM | TGI (MALME-3M melanoma): 35.6 µM | TGI (RPMI-8226 leukemia): 27 µM | TGI (SF-295 CNS): 52 µM | TGI (SR leukemia): 34.8 µM

NCCCN(CCCN(C(=O)Nc1ccccc1)c1ccccc1)C(=O)Nc1ccccc1
TGI (786-0 renal): > 100 µM | TGI (BT-549 breast): > 100 µM | TGI (DU-145 prostate): > 100 µM | TGI (HCC-2998 colon): 62.3 µM | TGI (MALME-3M melanoma): 38.9 µM | TGI (RPMI-8226 leukemia): 73 µM | TGI (SF-295 CNS): 58.3 µM | TGI (SR leukemia): > 100 µM

CCCC(=O)NC(Nc1ccc(S(=O)(=O)Nc2cc(C)on2)cc1)(C(=O)OCC)C(F)(F)F (centres undefined)
TGI (786-0 renal): > 100 µM | TGI (BT-549 breast): > 100 µM | TGI (DU-145 prostate): > 100 µM | TGI (HCC-2998 colon): > 100 µM | TGI (MALME-3M melanoma): > 100 µM | TGI (OVCAR-3 ovarian): > 100 µM | TGI (RPMI-8226 leukemia): > 100 µM | TGI (SF-295 CNS): > 100 µM | TGI (SR leukemia): > 100 µM

O=C(N/N=C/C=C/c1ccc([N+](=O)[O-])o1)c1cc2ccccc2cc1O
GI50 (BT-549 breast): 1.3 µM | TGI (BT-549 breast): 3.02 µM | GI50 (DU-145 prostate): 2.26 µM | TGI (DU-145 prostate): 8.67 µM | GI50 (HCC-2998 colon): 1.31 µM | TGI (HCC-2998 colon): 2.59 µM | GI50 (MALME-3M melanoma): 1.5 µM | TGI (MALME-3M melanoma): 3.4 µM | GI50 (OVCAR-3 ovarian): 0.562 µM | TGI (OVCAR-3 ovarian): 5.83 µM | GI50 (RPMI-8226 leukemia): 1.53 µM | TGI (RPMI-8226 leukemia): 6.83 µM | GI50 (SF-295 CNS): 3.37 µM | TGI (SF-295 CNS): 21.2 µM | GI50 (SR leukemia): 0.308 µM | TGI (SR leukemia): 7.69 µM

O=S(Nc1ccccc1)c1ccc(N2CCOCC2)cc1 (centres undefined)
TGI (786-0 renal): > 100 µM | TGI (BT-549 breast): > 100 µM | TGI (DU-145 prostate): > 100 µM | TGI (HCC-2998 colon): > 100 µM | TGI (MALME-3M melanoma): > 100 µM | TGI (OVCAR-3 ovarian): > 100 µM | TGI (RPMI-8226 leukemia): > 100 µM | TGI (SF-295 CNS): > 100 µM | TGI (SR leukemia): > 100 µM

COc1cc([C@@H]2c3cc4c(cc3[C@@H](c3c(O)cc(O)c5c3O[C@H](c3ccc(O)c(O)c3)[C@@H](O)C5)[C@H]3COC(=O)[C@H]23)OCO4)cc(OC)c1OC
TGI (786-0 renal): > 100 µM | TGI (BT-549 breast): > 100 µM | TGI (DU-145 prostate): 3.22 µM | TGI (HCC-2998 colon): 3.48 µM | TGI (MALME-3M melanoma): > 100 µM | TGI (OVCAR-3 ovarian): 3.22 µM | TGI (RPMI-8226 leukemia): 59.4 µM | TGI (SF-295 CNS): 3.45 µM

CCNCCCn1c2c(c3ccc(Cl)cc3c1=O)C(=O)c1cc(OC)cnc1-2
GI50 (BT-549 breast): 0.813 µM | TGI (BT-549 breast): 20.3 µM | GI50 (DU-145 prostate): 0.208 µM | TGI (DU-145 prostate): 1.56 µM | GI50 (HCC-2998 colon): 1.28 µM | TGI (HCC-2998 colon): 2.99 µM | GI50 (MALME-3M melanoma): 1.37 µM | TGI (MALME-3M melanoma): 3.12 µM | GI50 (OVCAR-3 ovarian): 2.13 µM | TGI (OVCAR-3 ovarian): 19.6 µM | GI50 (RPMI-8226 leukemia): 1.25 µM | TGI (RPMI-8226 leukemia): 3.65 µM

CCOC(=O)CCC(NC(=O)OCc1ccccc1)C(=O)NC(CCC(=O)OCC)C(=O)NC(CCC(=O)OCC)C(=O)NC(CCC(=O)OCC)C(=O)NC(CCC(=O)OCC)C(=O)NC(CCC(=O)OCC)C(=O)NC(CCC(=O)OCC)C(=O)OCC (centres undefined)
TGI (786-0 renal): > 100 µM | TGI (BT-549 breast): > 100 µM | TGI (DU-145 prostate): > 100 µM | TGI (HCC-2998 colon): 53.8 µM | TGI (MALME-3M melanoma): > 100 µM | TGI (OVCAR-3 ovarian): > 100 µM | TGI (RPMI-8226 leukemia): > 100 µM | TGI (SR leukemia): > 100 µM

CCOP(=O)(/C=C\n1cc(C)c(=O)[nH]c1=O)OCC
TGI (786-0 renal): > 100 µM | TGI (BT-549 breast): > 100 µM | TGI (DU-145 prostate): > 100 µM | TGI (OVCAR-3 ovarian): > 100 µM | TGI (RPMI-8226 leukemia): > 100 µM | TGI (SF-295 CNS): > 100 µM

CSCCC(N)C(=O)NCCNc1ccc(NCCNC(=O)C(N)CCSC)c2c1C(=O)c1ccccc1C2=O (centres undefined)
TGI (786-0 renal): 1.89 µM | TGI (BT-549 breast): 2.93 µM | TGI (DU-145 prostate): 5.4 µM | TGI (HCC-2998 colon): 2.33 µM | TGI (MALME-3M melanoma): 6.6 µM | TGI (OVCAR-3 ovarian): 9.44 µM | TGI (SF-295 CNS): 10.7 µM | TGI (SR leukemia): 2.85 µM

O=C(NCCCCCCCCCCCCNC(=O)Nc1cccc2ccccc12)Nc1cccc2ccccc12
TGI (786-0 renal): 32.2 µM | TGI (BT-549 breast): 31.4 µM | TGI (DU-145 prostate): 70.9 µM | TGI (HCC-2998 colon): 27.8 µM | TGI (MALME-3M melanoma): 34.4 µM | TGI (OVCAR-3 ovarian): 30.3 µM | TGI (RPMI-8226 leukemia): 37.1 µM | TGI (SF-295 CNS): 27.7 µM | TGI (SR leukemia): 31.7 µM

CCOC(=O)c1nc2ccc(C(F)(F)F)cc2nc1Oc1cc(OC)c(OC)c(OC)c1
TGI (786-0 renal): > 100 µM | TGI (BT-549 breast): > 100 µM | TGI (DU-145 prostate): > 100 µM | TGI (MALME-3M melanoma): > 100 µM | TGI (OVCAR-3 ovarian): > 100 µM | TGI (RPMI-8226 leukemia): > 100 µM | TGI (SF-295 CNS): > 100 µM

Cc1cc(-c2nc3cc(F)ccc3s2)ccc1NC(=O)[C@@H](N)CCCCN
TGI (786-0 renal): 7.29 µM | TGI (BT-549 breast): 26.9 µM | TGI (DU-145 prostate): 28.4 µM | TGI (HCC-2998 colon): 6.85 µM | TGI (MALME-3M melanoma): 33.2 µM | TGI (OVCAR-3 ovarian): 22.5 µM | TGI (RPMI-8226 leukemia): 4.88 µM | TGI (SF-295 CNS): 9.62 µM | TGI (SR leukemia): 3.52 µM

Cc1ccc(S(=O)(=O)n2c3ccc(Br)cc3c3nc4ccccc4nc32)cc1
TGI (786-0 renal): > 100 µM | TGI (DU-145 prostate): > 100 µM | TGI (HCC-2998 colon): > 100 µM | TGI (OVCAR-3 ovarian): > 100 µM | TGI (RPMI-8226 leukemia): > 100 µM | TGI (SF-295 CNS): > 100 µM

CCOc1ccc(N/C(=C(/C(Cl)=C(/Cl)N(CC)CC)[N+](=O)[O-])n2nnc3ccccc32)cc1
TGI (786-0 renal): 33.2 µM | TGI (BT-549 breast): 49.4 µM | TGI (HCC-2998 colon): > 100 µM | TGI (MALME-3M melanoma): 39 µM | TGI (OVCAR-3 ovarian): 24.3 µM | TGI (RPMI-8226 leukemia): > 100 µM | TGI (SF-295 CNS): > 100 µM

O=C1NC(Nc2ccccc2)=NC(C(F)(F)F)(C(F)(F)F)N1
TGI (786-0 renal): > 100 µM | TGI (DU-145 prostate): > 100 µM | TGI (HCC-2998 colon): > 100 µM | TGI (MALME-3M melanoma): > 100 µM | TGI (OVCAR-3 ovarian): > 100 µM | TGI (RPMI-8226 leukemia): > 100 µM | TGI (SF-295 CNS): > 100 µM | TGI (SR leukemia): > 100 µM
